From ChEMBL document CHEMBL1139848, “Structure-guided optimization of estrogen receptor binding affinity and antagonist potency of pyrazolopyrimidines with basic side chains” (J Med Chem, 2007)

How the values were obtained:
[1] = molecular target: T1, Estrogen receptor beta (Homo sapiens, UniProt Q92731); test: Binding affinity to ERbeta
[2] = molecular target: T1, Estrogen receptor beta; test: Antagonist potency at ERbeta expressed in human HEC1 cells by luciferase reporter gene assay; type: functional, cell-based, HEC-1
[3] = molecular target: T2, Estrogen receptor (Homo sapiens, UniProt P03372); test: Antagonist potency at ERalpha expressed in human HEC1 cells by luciferase reporter gene assay; type: functional, cell-based, HEC-1
T2 sequence (P03372 whole entry): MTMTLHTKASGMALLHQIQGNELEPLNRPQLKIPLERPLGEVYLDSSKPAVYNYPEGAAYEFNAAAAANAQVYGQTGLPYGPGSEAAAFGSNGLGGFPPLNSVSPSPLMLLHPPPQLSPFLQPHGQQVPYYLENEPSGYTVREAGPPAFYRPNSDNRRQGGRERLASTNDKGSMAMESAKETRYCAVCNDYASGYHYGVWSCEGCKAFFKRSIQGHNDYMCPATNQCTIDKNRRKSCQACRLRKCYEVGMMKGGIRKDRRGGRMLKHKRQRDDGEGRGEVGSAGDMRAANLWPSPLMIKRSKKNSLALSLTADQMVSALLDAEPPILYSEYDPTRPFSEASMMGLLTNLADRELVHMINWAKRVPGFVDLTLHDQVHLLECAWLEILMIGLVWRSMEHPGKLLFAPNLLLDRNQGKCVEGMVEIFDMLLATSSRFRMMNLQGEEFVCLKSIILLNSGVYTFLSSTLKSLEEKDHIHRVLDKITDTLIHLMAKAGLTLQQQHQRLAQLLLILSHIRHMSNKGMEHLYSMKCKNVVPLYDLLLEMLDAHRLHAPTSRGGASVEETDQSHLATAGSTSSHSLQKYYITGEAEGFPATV

[4] = molecular target: T2, Estrogen receptor; test: Binding affinity to ERalpha

T1 sequence (Q92731 whole entry): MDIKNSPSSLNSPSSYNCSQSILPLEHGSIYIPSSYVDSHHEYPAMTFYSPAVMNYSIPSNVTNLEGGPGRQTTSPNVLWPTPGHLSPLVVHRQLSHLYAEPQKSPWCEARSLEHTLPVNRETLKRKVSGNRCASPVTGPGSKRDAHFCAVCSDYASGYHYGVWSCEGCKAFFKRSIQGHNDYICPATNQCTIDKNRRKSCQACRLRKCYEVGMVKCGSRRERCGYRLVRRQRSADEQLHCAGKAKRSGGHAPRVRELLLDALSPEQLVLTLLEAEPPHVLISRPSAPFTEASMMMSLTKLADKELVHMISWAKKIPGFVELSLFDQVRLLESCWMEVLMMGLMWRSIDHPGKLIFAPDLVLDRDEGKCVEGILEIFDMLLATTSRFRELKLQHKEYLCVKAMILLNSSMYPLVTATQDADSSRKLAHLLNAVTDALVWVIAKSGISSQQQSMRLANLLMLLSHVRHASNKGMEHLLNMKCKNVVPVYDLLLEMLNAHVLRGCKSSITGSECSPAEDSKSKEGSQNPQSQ

Row | SMILES | Ki [1] [nM] | Ki [4] [nM] | IC50 [2] [nM] | IC50 [3] [nM]
1 | Oc1ccc(-c2nn3c(C(F)(F)F)cc(C(F)(F)F)nc3c2-c2ccc(O)cc2)cc1 | 48 | 26 | 600 | 6000
2 | Oc1ccc(-c2nn3c(C(F)(F)F)cc(C(F)(F)F)nc3c2-c2ccc(OCCN3CCCCC3)cc2)cc1 | 71 | 7 | 40 | 90
3 | CN(C)CCOc1ccc(-c2c(-c3ccc(O)cc3)nn3c(C(F)(F)F)cc(C(F)(F)F)nc23)cc1 | 178 | 47 | 250 | 1000
4 | Oc1ccc(-c2nn3cc(O)cnc3c2-c2ccc(O)cc2)cc1 | 1520 | 3330 | – | –
5 | Oc1ccc(-c2c(-c3ccc(OCCN4CCCCC4)cc3)nn3c(C(F)(F)F)cc(C(F)(F)F)nc23)cc1 | 192 | 266 | – | –

Further lines, with some results ahead:

Row | Ki [1] [nM] | Ki [4] [nM] | SMILES | IC50 [2] [nM] | IC50 [3] [nM]
6 | 156 | 408 | CN(C)CCOc1ccc(-c2nn3c(C(F)(F)F)cc(C(F)(F)F)nc3c2-c2ccc(O)cc2)cc1 | – | –
7 | 122 | 51 | Oc1ccc(-c2nn3c(C(F)(F)F)cc(C(F)(F)F)nc3c2-c2ccccc2)cc1 | – | –
8 | 139 | 2220 | Oc1ccc(-c2c(-c3ccccc3)nn3c(C(F)(F)F)cc(C(F)(F)F)nc23)cc1 | – | –
